Test results: patent US20260200939A1, “MOLECULAR GLUE DEGRADER COMPOUNDS AND USES THEREOF” (Novartis AG, priority 2022, published 2026)

Legend:
CDK4 = biological target: T1, CDK4 (Homo sapiens, UniProt P11802); assay: CDK4 Degradation Assay, Western blotting; type: cell-based; details: C33A cells, immunoblot
T1 construct: endogenous in cells; host or cells: C33A
Method: (§1) C33A cells were purchased from American Type Culture Collection (ATCC) and were cultured in Dulbecco's Modified Eagle Medium (DMEM) containing 10% (v/v) fetal bovine serum (FBS) and maintained at 37° C. with 5% CO2. 22RV1 cells were purchased from the ATCC and were cultured in RPMI-1640 Medium containing 10% (v/v) FBS and maintained at 37° C. with 5% CO2. HEK293T cells were obtained from the UC Berkeley Cell Culture Facility and were cultured in DMEM containing 10% (v/v) FBS and maintained at 37° C. with 5% CO2. K562 cells were obtained from the UC Berkeley Cell Culture Facility and were cultured in Iscove's Modified Dulbecco's Medium (IMDM) containing 10% (v/v) FBS and maintained at 37° C. with 5% CO2. MV-4-11 cells were obtained from the ATCC and were cultured in IMDM containing 10% (v/v) FBS and maintained at 37° C. with 5% CO2. A549 cells were obtained from the ATCC and were cultured in F-12K Medium containing 10% (v/v) FBS and maintained at 37° C. with 5% CO2. Mino cells were obtained from the ATCC and were cultured in RPMI-1640 Medium containing 10% (v/v) FBS and maintained at 37° C. with 5% CO2. LNCaP cells were obtained from the ATCC and were cultured in RPMI-1640 Medium containing 10% (v/v) FBS and maintained at 37° C. with 5% CO2. Unless otherwise specified, all cell culture materials were purchased from Gibco. It is not known whether HEK293T cells are from male or female origin.
(§2) Cells were washed twice with cold PBS, scraped, and pelleted by centrifugation (700 g, 5 min, 4° C.). Pellets were resuspended in PBS, sonicated, clarified by centrifugation (12,000 g, 10 min, 4° C.), and lysate was transferred to new low-adhesion microcentrifuge tubes. Proteome concentrations were determined using BCA assay and lysate was diluted to appropriate working concentrations.
(§3) Proteins were resolved by SDS/PAGE and transferred to nitrocellulose membranes using the Trans-Blot Turbo transfer system (Bio-Rad). Membranes were blocked with 5% BSA in Tris-buffered saline containing Tween 20 (TBS-T) solution for 30 min at RT, washed in TBS-T, and probed with primary antibody diluted in recommended diluent per manufacturer overnight at 4° C. After 3 washes with TBS-T, the membranes were incubated in the dark with IR680- or IR800-conjugated secondary antibodies at 1:10,000 dilution in 5% BSA in TBS-T at RT for 1 h. After 3 additional washes with TBST, blots were visualized using an Odyssey Li-Cor fluorescent scanner. The membranes were stripped using ReBlot Plus Strong Antibody Stripping Solution (EMD Millipore) when additional primary antibody incubations were performed. Antibodies used in this study were CDK4 (Abcam ab108357), Vinculin (Abcam ab129002), GAPDH (Cell Signaling Technology 14C10), RNF126 (Santa Cruz Biotechnology sc-376005), BRD4 (Abcam ab128874), Beta Actin (Cell Signaling Technology 13E5), PDE5 (Abcam ab259945), AR-V7 (Abcam ab273500), c-Abl (Santa Cruz Biotechnology sc-23), SMARCA2 (Abcam ab240648), LRRK2 (Abcam ab133474), BTK (Cell Signaling Technology D3H5), Androgen Receptor (Abcam ab133273).

pure RNF126 protein = biological target: T2, pure RNF126 protein (Homo sapiens, UniProt Q9BV68); assay: Mass spectrometry analysis of compound-labeled RNF126 tryptic digests; type: binding
T2 construct: FLAG (C); host or cells: HEK293T

SMARCA2 = biological target: T3, SMARCA2 (Homo sapiens, UniProt P51531); assay: SMARCA2 Degradation assay, Western blotting; type: cell-based
T3 construct: endogenous in cells; host or cells: MV-4-11
Method: as §1, §2
Proteins were resolved by SDS/PAGE and transferred to nitrocellulose membranes using the Trans-Blot Turbo transfer system (Bio-Rad). […]

Recombinant RNF126 = biological target: T4, Recombinant RNF126 (Homo sapiens, UniProt Q9BV68); assay: RNF126 Binding Assay, gel-based ABPP
T4 construct: FLAG (C); host or cells: HEK293T
Method: RNF126 mammalian expression plasmid with a C-terminal FLAG tag was purchased from Origene (Origene Technologies Inc., RC204986). The plasmid was transformed into NEB 5-alpha Competent E. coli (DH5) cells (NEB product no. C2987H). The following day, a single transformed colony was used to inoculate 50 ml of nutrient rich LB medium containing kanamycin (50 μg/ml) and was incubated at 37° C. overnight, with agitation (250 rpm). A Miniprep (Qiagen) kit was used to isolate the plasmid before sequence verification with appropriate primers.
HEK293T cells were grown to 30-50% confluency in DMEM supplemented with 10% FBS (Corning) and maintained at 37° C. with 5% CO2. Immediately before transfection, media was replaced with DMEM containing 5% FBS. Each plate was transfected with 24 μg of overexpression plasmid with 24 μL Lipofectamine 3000 (Invitrogen) in Opti-MEM. After 48 h cells were collected in PBS, lysed by sonication, and batch bound with anti-DYKDDDDK resin (GenScript, L00432) for 2 hours. Lysate and resin were washed with PBS and eluted with 133.33 μg/ml 3×FLAG peptide (ApexBio, A6001) in PBS. Five elutions were performed for 15 minutes each. Elutions were concentrated and the protein was stored in PBS. Concentration and purity was determined using the BCA assay and western blotting.
Recombinant RNF126 ([…]) was pre-treated with either DMSO vehicle or covalent ligand at 37° C. for 30 min in 25 μL of PBS, and subsequently treated with of IA-Rhodamine (concentrations designated in figure legends) (Setareh Biotech) at room temperature for 1 h in the dark. The reaction was stopped by addition of 4×reducing Laemmli SDS sample loading buffer (Alfa Aesar). After boiling at 95° C. for 5 min, the samples were separated on precast 4-20% Criterion TGX gels (Bio-Rad). Probe-labeled proteins were analyzed by in-gel fluorescence using a ChemiDoc MP (Bio-Rad).

Androgen Receptor = Androgen Receptor Degradation assay, Western blotting; type: cell-based; details: LNCaP and 22RV1 prostate cancer cells
Method: as §1, §2, §3

AR-V7 = biological target: T5, AR-V7 (Homo sapiens, UniProt P10275); assay: AR-V7 degradation in prostate cancer cells, Western blotting; type: cell-based; details: LNCaP and 22RV1 prostate cancer cells
T5 construct: endogenous in cells; host or cells: 22RV1 and/or LNCaP
T5 sequence (P10275 1-644 isoform P10275-3): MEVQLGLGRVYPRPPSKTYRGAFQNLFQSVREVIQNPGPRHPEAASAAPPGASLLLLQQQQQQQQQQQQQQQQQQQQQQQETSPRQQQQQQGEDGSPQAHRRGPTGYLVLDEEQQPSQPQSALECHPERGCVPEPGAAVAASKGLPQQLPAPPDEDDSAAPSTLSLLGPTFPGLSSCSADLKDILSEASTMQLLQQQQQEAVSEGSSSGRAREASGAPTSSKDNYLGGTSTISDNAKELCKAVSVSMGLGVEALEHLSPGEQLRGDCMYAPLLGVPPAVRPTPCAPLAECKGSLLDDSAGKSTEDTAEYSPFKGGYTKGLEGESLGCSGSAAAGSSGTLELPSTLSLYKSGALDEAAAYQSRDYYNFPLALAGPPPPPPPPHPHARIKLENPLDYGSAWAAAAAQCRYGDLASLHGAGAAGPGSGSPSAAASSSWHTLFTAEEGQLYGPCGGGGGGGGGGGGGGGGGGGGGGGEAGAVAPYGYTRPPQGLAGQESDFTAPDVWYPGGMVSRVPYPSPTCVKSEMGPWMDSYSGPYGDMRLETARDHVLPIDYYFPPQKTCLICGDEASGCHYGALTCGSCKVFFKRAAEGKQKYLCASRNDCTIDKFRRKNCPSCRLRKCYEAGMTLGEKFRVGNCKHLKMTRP
Method: as §1, with “LNCaP cells were obtained from the ATCC and were cultured in RPMI-1640 Medium containing 10% (v/v) FBS and maintained at 37° C. with 5% CO2. Unless otherwise specified, all cell culture materials were purchased from Gibco. It is not known whether HEK293T cells are from male or female origin.” left out
Cells were washed twice with cold PBS, scraped, and pelleted by centrifugation (700 g, 5 min, 4° C.). […] Proteome concentrations were determined using BCA assay and lysate was diluted to appropriate working concentrations. […]

T4 sequence (Q9BV68 whole entry): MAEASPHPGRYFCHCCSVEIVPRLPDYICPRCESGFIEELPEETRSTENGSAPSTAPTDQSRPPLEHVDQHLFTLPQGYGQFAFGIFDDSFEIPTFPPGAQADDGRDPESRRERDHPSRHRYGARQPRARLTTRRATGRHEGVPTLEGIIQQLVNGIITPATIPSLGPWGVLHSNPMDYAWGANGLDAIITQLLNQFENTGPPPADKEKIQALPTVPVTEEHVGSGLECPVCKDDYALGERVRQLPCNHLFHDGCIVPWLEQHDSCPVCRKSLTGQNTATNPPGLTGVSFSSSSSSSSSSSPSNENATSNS
T3 sequence (P51531 whole entry): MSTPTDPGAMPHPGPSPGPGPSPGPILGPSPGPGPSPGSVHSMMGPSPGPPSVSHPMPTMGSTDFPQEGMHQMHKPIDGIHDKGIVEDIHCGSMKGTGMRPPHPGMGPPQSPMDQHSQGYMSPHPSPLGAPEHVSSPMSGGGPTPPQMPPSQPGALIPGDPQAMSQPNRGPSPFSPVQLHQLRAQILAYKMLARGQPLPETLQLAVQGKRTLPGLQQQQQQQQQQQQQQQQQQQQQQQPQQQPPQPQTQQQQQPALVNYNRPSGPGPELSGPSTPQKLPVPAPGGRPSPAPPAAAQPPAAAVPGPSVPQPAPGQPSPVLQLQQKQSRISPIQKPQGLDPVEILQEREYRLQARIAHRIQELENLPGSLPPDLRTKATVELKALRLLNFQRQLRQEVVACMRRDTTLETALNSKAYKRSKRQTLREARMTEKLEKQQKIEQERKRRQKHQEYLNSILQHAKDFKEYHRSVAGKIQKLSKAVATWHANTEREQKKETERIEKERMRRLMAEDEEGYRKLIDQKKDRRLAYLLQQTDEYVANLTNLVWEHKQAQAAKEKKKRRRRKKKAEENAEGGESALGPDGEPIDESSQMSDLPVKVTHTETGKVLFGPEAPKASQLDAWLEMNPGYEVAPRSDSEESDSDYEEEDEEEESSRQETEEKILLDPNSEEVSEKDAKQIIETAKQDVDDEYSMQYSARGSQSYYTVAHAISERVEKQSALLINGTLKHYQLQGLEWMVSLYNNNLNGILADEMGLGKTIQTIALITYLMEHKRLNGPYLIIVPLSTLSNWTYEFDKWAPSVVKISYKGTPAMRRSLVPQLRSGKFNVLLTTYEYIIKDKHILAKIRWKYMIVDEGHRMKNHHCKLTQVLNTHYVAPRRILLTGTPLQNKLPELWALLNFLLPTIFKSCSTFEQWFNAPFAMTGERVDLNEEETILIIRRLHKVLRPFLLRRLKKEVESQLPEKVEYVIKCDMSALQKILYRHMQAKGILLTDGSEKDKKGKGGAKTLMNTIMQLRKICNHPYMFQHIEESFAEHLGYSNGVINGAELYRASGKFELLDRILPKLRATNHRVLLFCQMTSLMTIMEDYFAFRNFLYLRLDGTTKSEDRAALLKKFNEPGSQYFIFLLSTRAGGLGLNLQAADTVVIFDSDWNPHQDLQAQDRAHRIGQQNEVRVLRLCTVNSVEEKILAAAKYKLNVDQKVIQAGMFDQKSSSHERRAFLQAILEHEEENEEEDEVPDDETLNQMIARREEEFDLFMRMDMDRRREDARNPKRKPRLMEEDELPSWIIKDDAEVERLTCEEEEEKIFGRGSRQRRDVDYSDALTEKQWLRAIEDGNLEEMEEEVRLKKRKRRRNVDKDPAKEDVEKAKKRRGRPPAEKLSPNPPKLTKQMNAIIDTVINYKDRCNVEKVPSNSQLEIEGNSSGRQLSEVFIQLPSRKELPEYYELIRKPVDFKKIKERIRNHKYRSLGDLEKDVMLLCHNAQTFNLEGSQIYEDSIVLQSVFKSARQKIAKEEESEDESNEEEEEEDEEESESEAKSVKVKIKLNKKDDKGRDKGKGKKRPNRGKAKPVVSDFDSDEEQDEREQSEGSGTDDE
T2 sequence (Q9BV68 whole entry): as the sequence (Q9BV68 whole entry) above

| binding to RNF126 (gel-based ABPP), in words (Recombinant RNF126) | degradation of AR-V7, in words (AR-V7) | DC50 (SMARCA2) [µM] | Structure (SMILES) | degradation of AR, in words (Androgen Receptor) | further results |
| --- | --- | --- | --- | --- | --- |
| potent binding | degradation of AR and AR-V7 |  | COc1ccc(C(=O)/C=C/C(=O)N2CCN(c3ccc(-c4csc(N5CCOCC5)n4)cc3)CC2)cc1 [Compound 133] | degradation of AR and AR-V7 |  |
|  |  | > 5 | COc1ccc(C(=O)/C=C/C(=O)N[C@H]2C[C@H](NC(=O)CN3CCN(c4cc(-c5ccccc5O)nnc4N)CC3)C2)c(F)c1 [Compound 282, (E)-N-((1r,3r)-3-(2-(4-(3-amino-6-(2-hydroxyphenyl)pyridazin-4-yl)piperazin-1-yl)acetamido)cyclobutyl)-4-(2-fluoro-4-methoxyphenyl)-4-oxobut-2-enamide] |  |  |
|  |  | > 5 | COc1ccc(C(=O)/C=C/C(=O)N[C@H]2C[C@H](NC(=O)CN3CCN(c4cc(-c5ccccc5O)nnc4N)CC3)C2)cc1 [Compound 283, (E)-N-((1r,3r)-3-(2-(4-(3-amino-6-(2-hydroxyphenyl)pyridazin-4-yl)piperazin-1-yl)acetamido)cyclobutyl)-4-(4-methoxyphenyl)-4-oxobut-2-enamide] |  |  |

Further lines, the compound ahead of its results:

| Structure (SMILES) | binding to RNF126 (gel-based ABPP), in words (Recombinant RNF126) | degradation of AR-V7, in words (AR-V7) | DC50 (SMARCA2) [µM] | degradation of AR, in words (Androgen Receptor) | further results |
| --- | --- | --- | --- | --- | --- |
| COc1ccc(C(=O)/C=C/C(=O)N2CCN(c3ccc(Nc4ncc5cc(C(=O)N(C)C)n(C6CCCC6)c5n4)nc3)CC2)cc1 [Compound 113, (E)-7-cyclopentyl-2-((5-(4-(4-(4-methoxyphenyl)-4-oxobut-2-enoyl)piperazin-1-yl)pyridin-2-yl)-amino)-N,N-dimethyl-7H-pyrrolo[2,3-d]pyrimidine-6-carboxamide] |  |  |  |  | CDK4 degradation, in words (CDK4): in a dose-responsive manner; adduct on RNF126 by mass spectrometry of tryptic digests (pure RNF126 protein): reacts with C32 of RNF126 |
| COc1ccc(C(=O)/C=C/C(=O)N2CCN(c3cc(-c4ccccc4O)nnc3N)CC2)cc1 [Compound 128] | potent binding |  |  |  | degradation of SMARCA2, in words (SMARCA2; MV-4-11 leukemia cancer cells): degradation of SMARCA2 in MV-4-11 leukemia cancer cells cell in a dose-responsive manner |
| COc1ccc(C(=O)/C=C/C(=O)N2CCN(C(=O)COc3ccc(-c4csc(N5CCOCC5)n4)cc3)CC2)cc1 [Compound 132] | potent binding | degradation of AR and AR-V7 |  | degradation of AR and AR-V7 |  |
